Data as given in article PMC11668715 (AMB Express, 2024).
One block for each compound: values may come before it.

How the values were obtained:
MRSA ATCC 43,300 [1] = experiment: Checkerboard dilution assay; type: cell-based, S. aureus; parameters: MICalone / MICcombined: unit not given beside the values; details: for MICalone: drug alone, checkerboard; for MICalone / MICcombined: MRSA ATCC 43,300; for Fold change: MIC combined vs alone
MRSA ATCC 43,300 [2] = experiment: Time-killing assay of the synergistical combinations; type: cell-based, S. aureus; details: 1/4×MIC of PVB and 1/4×MIC of the antibiotic
[3] = tested on: MRSA and S. epidermidis persister cells; experiment: Persister cells killing assay; type: cell-based, S. aureus and S. epidermidis; details: 64 µg/mL
[4] = group 19: PVB combined with KANA
[5] = group 12: PVB combined with AMP
[6] = group 21: PVB combined with SPC
[7] = group 15: PVB combined with OXA
[8] = group 16: PVB combined with CRO
[9] = group 17: PVB combined with AMK
[10] = group 20: PVB combined with TOB
[11] = group 13: PVB combined with CEZ
[12] = group 14: PVB combined with CEF
[13] = group 18: PVB combined with GEN
[14] = group 11: PVB combined with CAZ

- MICalone (MRSA ATCC 43,300 [1]): 256
- MICcombined (MRSA ATCC 43,300 [1]; [4]): 1024
Compound: NC[C@H]1O[C@H](O[C@H]2[C@H](O)[C@@H](O[C@H]3O[C@H](CO)[C@@H](O)[C@H](N)[C@H]3O)[C@H](N)C[C@@H]2N)[C@H](O)[C@@H](O)[C@@H]1O [KANA, kanamycin]
- FICI (MRSA ATCC 43,300 [1]; group 19: PVB + KANA): 4.5
- Outcome (MRSA ATCC 43,300 [1]; group 19: PVB + KANA): antagonism (an antagonism effect was defined as FICI > 4)
- Fold change (MRSA ATCC 43,300 [1]; [4]): 4

- MICalone (MRSA ATCC 43,300 [1]): 16
- MICcombined (MRSA ATCC 43,300 [1]; [5]): 4
Compound: CC1(C)S[C@@H]2[C@H](NC(=O)[C@H](N)c3ccccc3)C(=O)N2[C@H]1C(=O)O [AMP, ampicillin]
- FICI (MRSA ATCC 43,300 [1]; group 12: PVB + AMP): 0.5
- Fold change (MRSA ATCC 43,300 [1]; [5]): 0.25
- bactericidal activity of combination with PVB (time-killing) (MRSA ATCC 43,300 [2]): synergistical bactericidal activity

- MICalone (MRSA ATCC 43,300 [1]): 128
- MICcombined (MRSA ATCC 43,300 [1]; [6]): 128
Compound: CN[C@@H]1[C@H](O)[C@H](NC)[C@H]2O[C@@]3(O)C(=O)C[C@@H](C)O[C@H]3O[C@@H]2[C@H]1O [SPC, spectinomycin]
- FICI (MRSA ATCC 43,300 [1]; group 21: PVB + SPC): 2
- Fold change (MRSA ATCC 43,300 [1]; [6]): 1

- MICalone (MRSA ATCC 43,300 [1]): 0.125
- MICcombined (MRSA ATCC 43,300 [1]; group 5: PVB combined with LEV): 0.125
Compound: C[C@H]1COc2c(N3CCN(C)CC3)c(F)cc3c(=O)c(C(=O)O)cn1c23 [LEV, levofloxacin]
- FICI (MRSA ATCC 43,300 [1]; group 5: PVB + LEV): 2
- Fold change (MRSA ATCC 43,300 [1]; group 5: PVB combined with LEV): 1

- MICalone (MRSA ATCC 43,300 [1]): 32
- MICcombined (MRSA ATCC 43,300 [1]; group 7: PVB combined with FOS): 32
Compound: C[C@@H]1O[C@@H]1P(=O)(O)O [FOS, fosfomycin]
- FICI (MRSA ATCC 43,300 [1]; group 7: PVB + FOS): 2
- Fold change (MRSA ATCC 43,300 [1]; group 7: PVB combined with FOS): 1

- MICalone (MRSA ATCC 43,300 [1]): 64
- MICcombined (MRSA ATCC 43,300 [1]; [9]): > 64
Compound: NCC[C@H](O)C(=O)N[C@@H]1C[C@H](N)[C@@H](O[C@H]2O[C@H](CN)[C@@H](O)[C@H](O)[C@H]2O)[C@H](O)[C@H]1O[C@H]1O[C@H](CO)[C@@H](O)[C@H](N)[C@H]1O [AMK, amikacin]
- FICI (MRSA ATCC 43,300 [1]; group 17: PVB + AMK): > 2
- Outcome (MRSA ATCC 43,300 [1]; group 17: PVB + AMK): indifference/antagonism
- Fold change (MRSA ATCC 43,300 [1]; [9]): > 1

- MICalone (MRSA ATCC 43,300 [1]): 64
- MICcombined (MRSA ATCC 43,300 [1]; [10]): 256
Compound: NC[C@H]1O[C@H](O[C@H]2[C@H](O)[C@@H](O[C@H]3O[C@H](CO)[C@@H](O)[C@H](N)[C@H]3O)[C@H](N)C[C@@H]2N)[C@H](N)C[C@@H]1O [TOB, tobramycin]
- FICI (MRSA ATCC 43,300 [1]; group 20: PVB + TOB): 5
- Fold change (MRSA ATCC 43,300 [1]; [10]): 4

- MICalone (MRSA ATCC 43,300 [1]): 2
- MICcombined (MRSA ATCC 43,300 [1]; group 1: PVB combined with TET): 2
Compound: CN(C)[C@@H]1C(O)=C(C(N)=O)C(=O)[C@@]2(O)C(O)=C3C(=O)c4c(O)cccc4[C@@](C)(O)[C@H]3C[C@@H]12 [TET, tetracycline]
- FICI (MRSA ATCC 43,300 [1]; group 1: PVB + TET): 3
- Fold change (MRSA ATCC 43,300 [1]; group 1: PVB combined with TET): 1

- MICalone (MRSA ATCC 43,300 [1]): 16
- MICcombined (MRSA ATCC 43,300 [1]; [11]): 8
Compound: Cc1nnc(SCC2=C(C(=O)O)N3C(=O)[C@@H](NC(=O)Cn4cnnn4)[C@H]3SC2)s1 [CEZ, cefazolin]
- FICI (MRSA ATCC 43,300 [1]; group 13: PVB + CEZ): 0.5625
- Fold change (MRSA ATCC 43,300 [1]; [11]): 0.5

- MICalone (MRSA ATCC 43,300 [1]): 32
- MICcombined (MRSA ATCC 43,300 [1]; [14]): 8
Compound: CC(C)(O/N=C(\C(=O)N[C@@H]1C(=O)N2C(C(=O)[O-])=C(C[n+]3ccccc3)CS[C@H]12)c1csc(N)n1)C(=O)O [CAZ, ceftazidime]
- FICI (MRSA ATCC 43,300 [1]; group 11: PVB + CAZ): 0.75
- Fold change (MRSA ATCC 43,300 [1]; [14]): 0.25

- MICalone (MRSA ATCC 43,300 [1]): 2
- MICcombined (MRSA ATCC 43,300 [1]; group 8: PVB combined with LZD): 2
Compound: CC(=O)NC[C@H]1CN(c2ccc(N3CCOCC3)c(F)c2)C(=O)O1 [LZD, linezolid]
- FICI (MRSA ATCC 43,300 [1]; group 8: PVB + LZD): 2
- Fold change (MRSA ATCC 43,300 [1]; group 8: PVB combined with LZD): 1

The next lines start with the compound.

Compound: penicillin
- FICI (MRSA ATCC 43,300 [1]; group 10: PVB + P): 1.5
- Outcome (MRSA ATCC 43,300 [1]; group 10: PVB + P): indifference (an indifference effect was defined as 1 < FICI ≤ 4)

Compound: Cc1onc(-c2ccccc2)c1C(=O)N[C@@H]1C(=O)N2[C@@H]1SC(C)(C)[C@@H]2C(=O)O [OXA, oxacillin]
- MICalone (MRSA ATCC 43,300 [1]): 16
- FICI (MRSA ATCC 43,300 [1]; group 15: PVB + OXA): 0.25
- Fold change (MRSA ATCC 43,300 [1]; [7]): 0.125
- MICcombined (MRSA ATCC 43,300 [1]; [7]): 2
- bactericidal activity of combination with PVB (time-killing) (MRSA ATCC 43,300 [2]): synergistical bactericidal activity

Compound: CC[C@H]1OC(=O)[C@H](C)[C@@H](O[C@H]2C[C@@](C)(OC)[C@@H](O)[C@H](C)O2)[C@H](C)[C@@H](O[C@@H]2O[C@H](C)C[C@H](N(C)C)[C@H]2O)[C@](C)(O)C[C@@H](C)C(=O)[C@H](C)[C@@H](O)[C@]1(C)O [E, erythromycin]
- FICI (MRSA ATCC 43,300 [1]; group 3: PVB + E): 2

Compound: CN[C@H](CC(C)C)C(=O)N[C@H]1C(=O)N[C@@H](CC(N)=O)C(=O)N[C@H]2C(=O)N[C@H]3C(=O)N[C@H](C(=O)N[C@H](C(=O)O)c4cc(O)cc(O)c4-c4cc3ccc4O)[C@H](O)c3ccc(c(Cl)c3)Oc3cc2cc(c3O[C@@H]2O[C@H](CO)[C@@H](O)[C@H](O)[C@H]2O[C@H]2C[C@](C)(N)[C@H](O)[C@H](C)O2)Oc2ccc(cc2Cl)[C@H]1O [VAN, vancomycin]
- MICalone (MRSA ATCC 43,300 [1]): 1
- FICI (MRSA ATCC 43,300 [1]; group 9: PVB + VAN): 2
- Fold change (MRSA ATCC 43,300 [1]; group 9: PVB combined with VAN): 1
- MICcombined (MRSA ATCC 43,300 [1]; group 9: PVB combined with VAN): 1
- persister cells killing [3]: resistant

Compound: CO/N=C(\C(=O)N[C@@H]1C(=O)N2C(C(=O)O)=C(CSc3nc(=O)c(=O)[nH]n3C)CS[C@H]12)c1csc(N)n1 [CRO, ceftriaxone]
- MICalone (MRSA ATCC 43,300 [1]): 32
- FICI (MRSA ATCC 43,300 [1]; group 16: PVB + CRO): 0.5625
- Fold change (MRSA ATCC 43,300 [1]; [8]): 0.0625
- MICcombined (MRSA ATCC 43,300 [1]; [8]): 2

Compound: CC[C@H]1OC(=O)[C@H](C)[C@@H](O[C@H]2C[C@@](C)(OC)[C@@H](O)[C@H](C)O2)[C@H](C)[C@@H](O[C@@H]2O[C@H](C)C[C@H](N(C)C)[C@H]2O)[C@](C)(O)C[C@@H](C)CN(C)[C@H](C)[C@@H](O)[C@]1(C)O [AZI, azithromycin]
- MICalone (MRSA ATCC 43,300 [1]): > 256
- FICI (MRSA ATCC 43,300 [1]; group 4: PVB + AZI): 2
- Fold change (MRSA ATCC 43,300 [1]; group 4: PVB combined with AZI): 1
- MICcombined (MRSA ATCC 43,300 [1]; group 4: PVB combined with AZI): > 256

Compound: C[C@H]1c2cccc(O)c2C(=O)C2=C(O)[C@]3(O)C(=O)C(C(N)=O)=C(O)[C@@H](N(C)C)[C@@H]3[C@@H](O)[C@@H]21 [DOX, doxycycline]
- MICalone (MRSA ATCC 43,300 [1]): 0.25
- FICI (MRSA ATCC 43,300 [1]; group 2: PVB + DOX): 2
- Fold change (MRSA ATCC 43,300 [1]; group 2: PVB combined with DOX): 1
- MICcombined (MRSA ATCC 43,300 [1]; group 2: PVB combined with DOX): 0.25

Compound: CO/N=C(\C(=O)N[C@@H]1C(=O)N2C(C(=O)O)=C(COC(C)=O)CS[C@H]12)c1csc(N)n1 [CEF, cefotaxime]
- MICalone (MRSA ATCC 43,300 [1]): 2
- Fold change (MRSA ATCC 43,300 [1]; [12]): 0.25
- MICcombined (MRSA ATCC 43,300 [1]; [12]): 0.5
- bactericidal activity of combination with PVB (time-killing) (MRSA ATCC 43,300 [2]): synergistical bactericidal activity

Compound: gentamycin
- MICalone (MRSA ATCC 43,300 [1]): 16
- FICI (MRSA ATCC 43,300 [1]; group 18: PVB + GEN): 2
- Outcome (MRSA ATCC 43,300 [1]; group 18: PVB + GEN): indifference (an indifference effect was defined as 1 < FICI ≤ 4)
- Fold change (MRSA ATCC 43,300 [1]; [13]): 1
- MICcombined (MRSA ATCC 43,300 [1]; [13]): 16

Compound: CCCCCCCCCC(=O)N[C@@H](Cc1c[nH]c2ccccc12)C(=O)N[C@H](CC(N)=O)C(=O)N[C@@H](CC(=O)O)C(=O)N[C@@H]1C(=O)NCC(=O)N[C@@H](CCCN)C(=O)N[C@@H](CC(=O)O)C(=O)N[C@H](C)C(=O)N[C@@H](CC(=O)O)C(=O)NCC(=O)N[C@H](CO)C(=O)N[C@@H]([C@H](C)CC(=O)O)C(=O)N[C@@H](CC(=O)c2ccccc2N)C(=O)O[C@@H]1C [DAP, daptomycin]
- MICalone (MRSA ATCC 43,300 [1]): 0.25
- FICI (MRSA ATCC 43,300 [1]; group 6: PVB + DAP): 1
- Fold change (MRSA ATCC 43,300 [1]; group 6: PVB combined with DAP): 0.5
- MICcombined (MRSA ATCC 43,300 [1]; group 6: PVB combined with DAP): 0.125
